BigSolDB 2.1

CC(=O)c1c(C)cc(C(C)(C)C)cc1C
solubility (mole fraction)
Settings | in acetone | in acetonitrile | in cyclohexane | in ethanol | in ethyl acetate | in isopropanol | in methanol | in n-octanol
273.15 K | 0.308 | 0.188 | 0.279 | 0.0701 | 0.376 | 0.073 | 0.0607 | 0.123
278.15 K | 0.346 | 0.235 | 0.337 | 0.095 | 0.427 | 0.101 | 0.0828 | 0.161
283.15 K | 0.393 | 0.291 | 0.407 | 0.14 | 0.479 | 0.146 | 0.116 | 0.205
288.15 K | 0.445 | 0.355 | 0.48 | 0.196 | 0.539 | 0.206 | 0.16 | 0.27
293.15 K | 0.505 | 0.428 | 0.56 | 0.27 | 0.603 | 0.288 | 0.228 | 0.354
298.15 K | 0.568 | 0.521 | 0.645 | 0.37 | 0.673 | 0.391 | 0.339 | 0.46
303.15 K | 0.64 | 0.623 | 0.735 | 0.52 | 0.741 | 0.542 | 0.478 | 0.6
308.15 K | 0.728 | 0.739 | 0.832 | 0.705 | 0.817 | 0.729 | 0.667 | 0.761
